Experimental findings from EP0700399B1, “36-DERIVATIVES OF RIFAMYCINS AND THEIR USE AS ANTIMICROBIAL AGENTS” (GRUPPO LEPETIT S.P.A., priority 1993, dated 1994) are described below.

One experiment relates to Staphylococcus aureus. Briefly: MIC by broth microdilution. It is filed as cell-based. Conditions: internal code L165; for MIC: Staphylococcus aureus, read-out: MIC of the compounds.
The next experiment deals with Staph. aureus rifa-r^(1). Briefly: MIC by broth microdilution. It is filed as cell-based. Conditions: for MIC of the compounds: internal code L721, rifampicin resistant strain, moderately resistant; for MIC: Staphylococcus aureus, read-out: MIC of the compounds. (In general: In broth dilution the organism is exposed to a series of concentrations in liquid medium.)
The subject of another experiment is Staph. aureus rifa-r^(2). Briefly: MIC by broth microdilution. It is filed as cell-based. Conditions: for MIC of the compounds: internal code L1282, rifampicin resistant strain, highly resistant; for MIC: Staphylococcus aureus, read-out: MIC of the compounds.
Experiment [1] has as its system Staph. epidermidis ATCC 12228. Kind of experiment: MIC by broth microdilution. As to conditions: internal code L147; for MIC: Staphylococcus epidermidis, ATCC12228, read-out: MIC of the compounds. It is filed as cell-based.
Experiment [2] concerns Staph. haemolyticus rifa-r^(2). Kind of experiment: MIC by broth microdilution. Format: cell-based. Conditions: for MIC of the compounds: internal code L602, rifampicin resistant strain, highly resistant; for MIC: Staphylococcus haemolyticus, read-out: MIC of the compounds.
The subject of the next experiment is Streptococcus pyogenes. Kind of experiment: MIC by broth microdilution. It is filed as cell-based. Conditions: internal code L49; for MIC: Streptococcus pyogenes, read-out: MIC of the compounds.
The test system of a further experiment is Strept. pneumoniae. Kind of experiment: MIC by broth microdilution. Conditions: internal code L44; for MIC: Streptococcus pneumoniae, read-out: MIC of the compounds. It is filed as cell-based.
In experiment [3] the test system is Enterococc. faecalis ATCC 7080. Kind of experiment: MIC by broth microdilution. As to conditions: internal code L149; for MIC: Enterococcus faecalis, ATCC7080, read-out: MIC of the compounds. Format: cell-based, Enterococcus faecalis.
In experiment [4] the test system is Propionibact. acnes ATCC 6919. Kind of experiment: MIC by broth microdilution. It is filed as cell-based, Propionibacterium acnes. Conditions: internal code L1014, anaerobic, 48 hours; for MIC: Cutibacterium acnes, ATCC6919, read-out: MIC of the compounds.
The subject of experiment [5] is Bacteroides fragilis ATCC 23745. Briefly: MIC by broth microdilution. Conditions: internal code L1010, anaerobic, 48 hours. Format: cell-based.
The test system of another experiment is Neisseria gonorrhoeae. Kind of experiment: MIC by broth microdilution. Format: cell-based. As to conditions: internal code L997, 5% carbon dioxide, 48 hours; for MIC: Neisseria gonorrhoeae, read-out: MIC of the compounds.
The subject of experiment [6] is Haemoph. influenzae ATCC 19418. Kind of experiment: MIC by broth microdilution. Conditions: internal code L970, 5% carbon dioxide, 48 hours; for MIC: Haemophilus influenzae, ATCC19418, read-out: MIC of the compounds. It is filed as cell-based, Haemophilus influenzae.
Another experiment deals with Escherichia coli. Briefly: MIC by broth microdilution. Format: cell-based. As to conditions: internal code L47; for MIC: Escherichia coli, read-out: MIC of the compounds.
Experiment [7] has as its system Esch. coli K12 hyperpermeable. Kind of experiment: MIC by broth microdilution. It is filed as cell-based, Escherichia coli. Conditions: internal code G1640; hyperpermeable.
The test system of experiment [8] is Esch. coli K12 rifa-r^(1). Briefly: MIC by broth microdilution. It is filed as cell-based, Escherichia coli. As to conditions: internal code G1064; rifampicin resistant strain, moderately resistant.
Experiment [9] relates to Proteus vulgaris ATCC 881. Kind of experiment: MIC by broth microdilution. Conditions: internal code L79; for MIC: Proteus vulgaris, ATCC881, read-out: MIC of the compounds. Format: cell-based.
Experiment [10] has as its system Pseudomonas aerug. ATCC10145. Briefly: MIC by broth microdilution. Conditions: internal code L4; for MIC: Pseudomonas, ATCC10145, read-out: MIC of the compounds. It is filed as cell-based, Pseudomonas aeruginosa.
The subject of another experiment is Staph. aureus Smith. Briefly: MIC by broth microdilution. It is filed as cell-based. Conditions: internal code L819; for MIC: Staphylococcus aureus, read-out: MIC of the compounds.
For experiment [11], the system named is Bacteroides fragilis ATCC 25285. Kind of experiment: MIC by broth microdilution. As to conditions: internal code L1011, anaerobic, 48 hours; for MIC: Bacteroides fragilis, ATCC25285, read-out: MIC of the compounds. It is filed as cell-based.
Experiment [12] relates to Staphylococcus aureus Smith (Int. code L 819). Briefly: Experimental septicemia in mice. As to conditions: Staphylococcus aureus, 168 h, treated once immediately after infection, survival on the 7th day. Format: in vivo. The procedure: Some compounds of the invention were also tested in experimental septicemia in mice infected with Staphylococcus aureus Smith (Int. code L 819). For this purpose, groups of five mice were infected intraperitoneally with about 1 x 10^6 CFU of S. aureus Smith suspended in 0.5 ml of Difco bacteriological mucin. Untreated animals died within 48 hours. The other animals were treated once immediately after infection. On the 7th day the value of ED50 (expressed in mg/kg) was calculated by the method of Spearman-[…]., Statistical method in biological assay, page 254, C. Griffin Ltd., London, 1952), on the basis of the percentage of animals surviving at each dose.

Where [13] appears, read: sc, subcutaneous, read-out: ED50 SC route.

Read-outs that look alike come from different tables or passages of the source.

“36-Bromo-2'-(diethylamino)rifamycin P [Compound C9]”: the “MIC of the compounds” value was 0.06 µg/mL with Staphylococcus aureus; 8 µg/mL with Staph. aureus rifa-r^(1); over 128 µg/mL in the experiment with Staph. aureus rifa-r^(2); 0.06 µg/mL in experiment [1]; at least 128 µg/mL in experiment [2]; 0.13 µg/mL in the experiment with Streptococcus pyogenes. The “MIC of the compounds” value with Strept. pneumoniae is 0.13 µg/mL; in experiment [3], 2 µg/mL; in experiment [4], 0.06 µg/mL; in experiment [5], 0.13 µg/mL; in the experiment on Neisseria gonorrhoeae it was 0.5 µg/mL; in [6], 0.25 µg/mL. The “MIC of the compounds” value was 16 µg/mL in the experiment on Escherichia coli; 2 µg/mL in [7]; over 128 µg/mL in [8]; 32 µg/mL in [9]; 16 µg/mL in experiment [10].

As usually defined, the ED50 is the dose at which the effect has come halfway, by size or by number of responders. As for `CCn1cc(C(=O)OCC(=O)O[C@H]2[C@H](C)[C@H](O)[C@H](C)[C@@H](O)[C@@H](C)/C=C/C=C(/C)C(=O)Nc3c(C=NN4CCN(C)CC4)c(O)c4c5c(c(C)c(O)c4c3O)O[C@](C)(O/C=C/[C@H](OC)[C@H]2C)C5=O)c(=O)c2cc(F)c(N3CCN(C)CC3)cc21` [Compound C25, 36-{[1-Ethyl-6-fluoro-1,4-dihydro-7-(4-methyl-1-piperazinyl)-4-oxo-3-quinolinyl]carbonyloxy}-3-{[(4-methyl-1-piperazinyl)imino]methyl}rifamycin SV], the MIC was determined as 0.06 µg/mL in the experiment on Staphylococcus aureus; 0.13 µg/mL in the experiment with Staph. aureus rifa-r^(1); 1 µg/mL in the experiment with Staph. aureus rifa-r^(2); 0.06 µg/mL in the experiment on Staph. aureus Smith; 0.13 µg/mL in experiment [1]; 1 µg/mL in experiment [2]. Besides, the MIC came to 0.03 µg/mL in the experiment with Streptococcus pyogenes; 0.016 µg/mL in the experiment with Strept. pneumoniae; 2 µg/mL in [3]; 2 µg/mL in experiment [11]; 0.5 µg/mL in the experiment with Neisseria gonorrhoeae; 1 µg/mL in experiment [6]. Also, the MIC was 64 µg/mL with Escherichia coli, 64 µg/mL in [9] and 128 µg/mL in [10]. Further, the ED50 in experiment [12] (intravenous, read-out: ED50 IV route) was determined as 2.9 mg/kg; in [12] (setting [13]), 4.7 mg/kg.

Take `CO[C@H]1/C=C/O[C@@]2(C)Oc3c(C)c(O)c4c(O)c(c(C=NN5CCN(C)CC5)c(O)c4c3C2=O)NC(=O)/C(C)=C\C=C\[C@H](C)[C@H](O)[C@@H](C)[C@@H](O)[C@@H](C)[C@H](OC(=O)COC(=O)c2cn(C3CC3)c3cc(-c4cc(C)nc(C)c4)c(F)cc3c2=O)[C@@H]1C` [Compound C29, 36-{[1-Cyclopropyl-6-fluoro-1,4-dihydre-7-(2,6-dimethyl-4-pyridinyl)-4-oxo-3-quinolinyl]-carbonyloxy}-3-{[(4-methyl-1-piperazinyl)imino]-methyl}rifamycin SV]: the MIC in the experiment with Staphylococcus aureus was 0.03 µg/mL; with Staph. aureus rifa-r^(1), 0.5 µg/mL; with Staph. aureus rifa-r^(2), 2 µg/mL; with Staph. aureus Smith, 0.03 µg/mL; in [1] it was 0.03 µg/mL; in [2], 8 µg/mL. The MIC came out at 0.016 µg/mL in the experiment on Streptococcus pyogenes; 0.016 µg/mL in the experiment with Strept. pneumoniae; 2 µg/mL in experiment [3]; 0.06 µg/mL in experiment [4]; 0.13 µg/mL in experiment [11]; 0.25 µg/mL in the experiment on Neisseria gonorrhoeae. The MIC is 0.25 µg/mL in [6], 16 µg/mL in the experiment on Escherichia coli, 128 µg/mL in [9] and over 128 µg/mL in [10].

As for `CCn1cc(C(=O)OCC(=O)O[C@H]2[C@H](C)[C@H](O)[C@H](C)[C@@H](O)[C@@H](C)/C=C/C=C(/C)C(=O)NC3=CC(=O)c4c(c(O)c(C)c5c4C(=O)[C@@](C)(O/C=C/[C@H](OC)[C@H]2C)O5)C3=O)c(=O)c2cc(F)c(N3CCN(C)CC3)cc21` [Compound C23, 36-{2-[1-Ethyl-6-fluoro-1,4-dihydro-7-(4-methyl-1-piperazinyl)-4-oxo-3-quinolinyl]carbonyloxy} rifamycin S], the MIC in the experiment on Staphylococcus aureus stood at 0.06 µg/mL; with Staph. aureus rifa-r^(1), 0.06 µg/mL; in the experiment with Staph. aureus rifa-r^(2), 1 µg/mL; in experiment [1] it was 0.06 µg/mL; in experiment [2], 4 µg/mL; in the experiment on Streptococcus pyogenes, 0.004 µg/mL. For the same compound, the MIC in the experiment on Strept. pneumoniae was 0.004 µg/mL; in experiment [3] it was 0.13 µg/mL; in experiment [4] it was 2 µg/mL; in [5] (Bacteroides fragilis, ATCC23745, read-out: MIC of the compounds) it was 8 µg/mL; in the experiment on Neisseria gonorrhoeae, 8 µg/mL; in experiment [6] it was 2 µg/mL. Besides, the MIC is 128 µg/mL in the experiment on Escherichia coli, 128 µg/mL in [9] and over 128 µg/mL in [10]. Further, the ED50 in experiment [12] (setting [13]) was 32.9 mg/kg.

As for `CCn1cc(C(=O)OCC(=O)O[C@H]2[C@H](C)[C@H](O)[C@H](C)[C@@H](O)[C@@H](C)/C=C/C=C(/C)C(=O)Nc3c(C=NN4CCN(C)CC4)c(O)c4c5c(c(C)c(O)c4c3O)O[C@](C)(O/C=C/[C@H](OC)[C@H]2C)C5=O)c(=O)c2cnc(N3CCN(C)CC3)nc21` [Compound C28], the MIC is 0.06 µg/mL in the experiment on Staphylococcus aureus; 0.13 µg/mL in the experiment with Staph. aureus rifa-r^(1); 2 µg/mL with Staph. aureus rifa-r^(2); 0.06 µg/mL with Staph. aureus Smith; 0.06 µg/mL in experiment [1]; 4 µg/mL in experiment [2]. For the same compound, the MIC in the experiment with Streptococcus pyogenes came to 0.016 µg/mL; with Strept. pneumoniae it was 0.008 µg/mL; in [3] it was 8 µg/mL; in experiment [4], 0.06 µg/mL; in experiment [11], 1 µg/mL; in the experiment with Neisseria gonorrhoeae, 0.25 µg/mL. The MIC came out at 2 µg/mL in [6], 64 µg/mL in the experiment with Escherichia coli, 64 µg/mL in experiment [9] and 128 µg/mL in experiment [10].

“36-{[1-Ethyl-1,4-dihydro-1-methyl-4-oxo-1,8-naphthyridin-3-yl)carbonyloxy}-3-{[(4-methyl-1-piperazinyl)imino]methyl}rifamycin SV [Compound C27]”: the “MIC of the compounds” value in the experiment with Staphylococcus aureus was 0.03 µg/mL; in the experiment with Staph. aureus rifa-r^(1), 0.25 µg/mL; in the experiment with Staph. aureus rifa-r^(2) it was 16 µg/mL; in the experiment with Staph. aureus Smith it was 0.016 µg/mL; in experiment [1] it was 0.016 µg/mL; in experiment [2] it was 16 µg/mL. Also, the “MIC of the compounds” value in the experiment on Streptococcus pyogenes amounted to 0.008 µg/mL; in the experiment with Strept. pneumoniae, 0.008 µg/mL; in experiment [3], 2 µg/mL; in experiment [4], 0.03 µg/mL; in experiment [11], 0.13 µg/mL; in the experiment with Neisseria gonorrhoeae it was 0.13 µg/mL. For the same compound, the “MIC of the compounds” value stood at 0.25 µg/mL in [6], 32 µg/mL in the experiment with Escherichia coli, 16 µg/mL in [9] and 32 µg/mL in experiment [10].
